Experimental data reported in patent US7807777B2, “Marker peptide for alzheimer's disease” (Immuno-Biological Laboratories Co., Ltd., priority 2003, dated 2010).

Legend:
presenilin [1] = experiment: Western blotting of cell lysates of HEK293 cells expressing APP695, Alcα, Alcβ or Alcγ, with or without presenilin inhibitor; type: cell-based; details: 1 μl of 1 mM DMSO solution per 1 ml culture medium, 24 hrs
Procedure: A DNA encoding Alcα, Alcβ, Alcγ, or APP695 (an isoform of human APP consisting of 695 amino acids) was inserted into a mammalian expression vector pcDNA3.1 (Invitrogen).
(§1) HEK293 cells were seeded in DMEM (D5796: Sigma) containing 10% fetal bovine serum in a 6-well culture plate (area of base: 10 cm^2) and transfected with the expression vector prepared above by using a transfection reagent (LipofectAMINE 2000: Invitrogen). As a control, HEK293 cells were similarly transfected with an empty pcDNA3.1 vector.
One microliter of a DMSO solution containing 1 mM of a presenilin inhibitor L-685,458 (Calbiochem) was added to 1 ml of the culture medium. After the incubation for 24 hrs, a sample of the culture medium was taken. As a control, an equal quantity of DMSO instead of the L-685,458 solution was added to the culture medium and similarly incubated. Then, a sample of the culture medium was taken. The sample of the culture medium was added to 1 ml of HBST buffer (10 mM HEPES of pH 7.4, 150 mM sodium chloride, 0.5% Triton X-100, 5 μg/ml chymostatin, 5 μg/ml leupeptin, and […]) for extracting proteins of the cells. The solubilized cells were centrifuged (12000×g, 10 min) and supernatant was collected to recover the solubilized components. The solubilized components (7.5 μl) were added to 7.5 μl of a sample-buffer mixture (a mixture of 5 μl of 5×SDS sample buffer and 2.5 μl of 8 M urea solution) and boiled for 5 min. This sample was subjected to SDS-PAGE of 8/15% 2-stage gel and then the proteins were transferred on a nitrocellulose membrane for conducting Western blotting. The SDS-PAGE was performed according to the general method of Laemmli. As the primary antibody, an anti-APP cytoplasmic domain antibody (G369, 1/2000 dilution), anti-Alcα antibody (UT83, 0.3 μg/ml), anti-Alcβ antibody (UT99, 0.5 μg/ml), and anti-Alcγ antibody (UT105, 1/500 dilution) were used. The detection was performed by using an ECL kit (Pharmacia). The UT99 and UT105 are antibodies recognizing the C-terminals of Alcβ and Alcγ, respectively. FIG. 6 and FIG. 7A to C show the results.

presenilin [2] = experiment: Incubation of membrane fragments of HEK293 cells expressing Alcα, Alcβ or Alcγ, Western blotting with anti-Alc antibodies; type: biochemical; details: Alcβ and Alcγ, final concentration 1 μM, 37° C. for 1 or 3 hrs, FIG. 8A to C
Procedure: DNAs encoding Alcα, Alcβ, or Alcγ were each inserted into a mammalian expression vector pcDNA3.1 (Invitrogen).
as §1, with “DMEM” for “DMEM (D5796: Sigma)”, “a 10-cm” for “a 6-well”, “base: 60” for “base: 10”, “were” for “were similarly”
After the incubation for 24 hrs, the culture medium was removed and the cells were washed with ice-cooled PBS. Then, 10 ml of PBS was added again. The cells were detached from the plate by pipetting and transferred into a 15 ml Falcon tube. The cells were collected by centrifugation (1500 rpm, 10 min, low-speed refrigerated centrifuge: Beckmann) as a pellet of the cells. One milliliter of buffer D (0.25 M sucrose, 10 mM triethanolamine-acetate of pH 7.8, 5 μg/ml chymostatin, 5 μg/ml leupeptin, and 5 μg/ml pepstatin) was added to the pellet of the cells, and the cells were broken by 12 passages through a 27 G needle. Then, the broken cells were centrifuged with a TOMY TMA-6 rotor at 3000 rpm (1000×g) for 10 min at 4° C. to remove unbroken cells and nuclei and to obtain a nucleus-removed cell homogenate. […]

Question: What does the source list for `CC(C)C[C@H](NC(=O)[C@H](Cc1ccccc1)C[C@@H](O)[C@H](Cc1ccccc1)NC(=O)OC(C)(C)C)C(=O)N[C@@H](Cc1ccccc1)C(N)=O` [L-685,458]?
Answer: C-terminal fragment (CTFα) of APP in the cell lysate (presenilin [1]; HEK293 cells expressing APP695, FIG. 6): a large amount of the C-terminal fragment (CTFα) was detected in the cell lysate only when the presenilin inhibitor (L-685,458) was added; C-terminal fragment (CTF1) of Alcα in the cell lysate (presenilin [1]; HEK293 cells expressing Alcα, FIG. 7A): C-terminal fragments (CTF1) were detected only when the presenilin inhibitor was added; C-terminal fragment of Alcβ in the cell lysate (presenilin [1]; HEK293 cells expressing Alcβ, FIG. 7B): detected even when the presenilin inhibitor was not added; C-terminal fragment (CTF1) of Alcγ in the cell lysate (presenilin [1]; HEK293 cells expressing Alcγ, FIG. 7C): C-terminal fragments (CTF1) were detected only when the presenilin inhibitor was added; fragments (such as Alcα-ICD) containing the C-terminal of each Alc (presenilin [2]): such fragments were not detected
